Counter-ions that a name gives are not always drawn. Like-named read-outs stand apart in the source and are kept apart here.
Experiments:
[1] = biological target: T1, EAAT1 (JumpIn-EAAT1-mock cells) (Homo sapiens, UniProt P43003); assay: Impedance-based TRACT assay (xCELLigence) on mock-transfected JumpIn-EAAT1 cells; type: cell-based; conditions: no inhibitor
T1 construct: expressed in transfected cells; host or cells: Jump In T-REx HEK 293
Procedure: In short, cells are cultured in medium on gold-plated electrodes in microwell E-plates.
Assays were performed at 37°C and 5% CO2 in 96-well PET E-plates in a total volume of 100 µl per well. Prior to cell seeding, the baseline impedance (Z0) was measured in the recording station in 40 µl (two compound additions) or 45 µl (one compound addition) medium in the presence (+) or absence (−) of 1 μg/ml dox. All compounds were diluted in phosphate-buffered saline (PBS) and added in 5 µl per addition using a VIAFLO 96 handheld electronic 96 channel pipette (INTEGRA Biosciences, Tokyo, Japan). When DMSO was used as a solvent for a compound, the final amount of DMSO was kept at 0.1% per well and was included in the vehicle (PBS/DMSO). All conditions were tested at two technical replicates per plate.
Transiently transfected JumpIn-EAAT1 cells were detached using only PBS/EDTA. The E-plate was left to rest at room temperature for 30 min prior to replacement in the recording station at 37°C and 5% CO2. Cell growth was recorded overnight for 22 h. If a pretreatment was required for the experiment, the cells were pretreated after 22 h with either a concentration of inhibitor or vehicle (PBS/DMSO) and cells were monitored for 60 min. For GPCR antagonist experiments, a maximum concentration of LY341495 (1 µM) was used. […] After the pretreatment, cells were stimulated with substrate or vehicle (PBS). […] After stimulation the impedance was measured for at least 2 h. […] Properly washed plates were re-used up to two times.
Experimental data was recorded using RTCA Software v2.0 or v2.1.1 (ACEA Biosciences). In the RTCA Software CI values were normalized to the time point prior to substrate/agonist stimulation resulting in normalized Cell Index (nCI) values. The nCI data were exported and subsequent analyses and data visualizations were done using GraphPad Prism v9 (GraphPad Software, San Diego, CA, United States). […] The potency values of substrates and inhibitory potencies of EAAT inhibitors were determined by fitting the net AUC data to a sigmoidal concentration-effect curve with a variable slope.

[2] = biological target: T2, EAAT2 (JumpIn-EAAT2 cells) (Homo sapiens, UniProt P43004); assay: Impedance-based phenotypic assay (xCELLigence) on JumpIn-EAAT2 cells; type: cell-based; conditions: net AUC 0–120 min, read-out: Substrate pEC50 ± SEM (converted)
T2 construct: expressed in transfected cells; host or cells: Jump In T-REx HEK 293
T2 sequence (P43004 whole entry): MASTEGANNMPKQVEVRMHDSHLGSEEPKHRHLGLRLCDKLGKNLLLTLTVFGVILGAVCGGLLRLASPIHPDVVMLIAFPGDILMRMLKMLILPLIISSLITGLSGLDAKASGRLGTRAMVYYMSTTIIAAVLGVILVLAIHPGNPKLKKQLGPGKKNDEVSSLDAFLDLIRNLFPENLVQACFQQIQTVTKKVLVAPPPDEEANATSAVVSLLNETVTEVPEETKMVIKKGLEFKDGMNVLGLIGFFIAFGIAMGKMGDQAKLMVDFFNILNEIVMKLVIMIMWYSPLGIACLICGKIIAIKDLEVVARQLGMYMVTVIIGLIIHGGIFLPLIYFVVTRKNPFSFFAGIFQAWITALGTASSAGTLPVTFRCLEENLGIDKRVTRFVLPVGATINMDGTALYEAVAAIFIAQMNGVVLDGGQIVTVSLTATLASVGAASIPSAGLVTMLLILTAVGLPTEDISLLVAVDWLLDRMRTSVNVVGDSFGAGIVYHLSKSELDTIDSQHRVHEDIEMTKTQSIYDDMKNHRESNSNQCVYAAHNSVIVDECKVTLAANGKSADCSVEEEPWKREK

[3] = system: JumpIn-EAAT1-LifeAct-GFP cells; assay: Automated confocal microscopy of the actin cytoskeleton (cell spreading); type: cell-based, human; conditions: dox-induced cells, 1 mM, within 2 h
Procedure: For visualization of the actin cytoskeleton, JumpIn-EAAT1 cells were transduced with a lentiviral GFP-LifeAct cDNA expression vector and were maintained in culture medium containing 2 μg/ml puromycin to select for successfully transduced cells.
JumpIn-EAAT1-LifeAct-GFP cells were seeded at 20,000 cells/well on a SCREENSTAR black-walled clear-bottom 96-well culture plate in 90 µl culture medium and grown for 24 h at 37°C and 5% CO2. […] Microscopy was performed on a Nikon Eclipse Ti2 C2+ confocal microscope (Nikon, Amsterdam, Netherlands). This system was equipped with a 37°C incubation chamber, an automated xy-stage, an integrated Perfect Focus System (PFS) and 408, 488, and 561 nm lasers. The system was controlled by Nikon’s NIS software. All images were acquired using a Plan-Apochromat ×20 objective with 0.75 NA, at a resolution of 512 × 512 pixels.

T1 sequence (P43003 whole entry, the tested form may be a part): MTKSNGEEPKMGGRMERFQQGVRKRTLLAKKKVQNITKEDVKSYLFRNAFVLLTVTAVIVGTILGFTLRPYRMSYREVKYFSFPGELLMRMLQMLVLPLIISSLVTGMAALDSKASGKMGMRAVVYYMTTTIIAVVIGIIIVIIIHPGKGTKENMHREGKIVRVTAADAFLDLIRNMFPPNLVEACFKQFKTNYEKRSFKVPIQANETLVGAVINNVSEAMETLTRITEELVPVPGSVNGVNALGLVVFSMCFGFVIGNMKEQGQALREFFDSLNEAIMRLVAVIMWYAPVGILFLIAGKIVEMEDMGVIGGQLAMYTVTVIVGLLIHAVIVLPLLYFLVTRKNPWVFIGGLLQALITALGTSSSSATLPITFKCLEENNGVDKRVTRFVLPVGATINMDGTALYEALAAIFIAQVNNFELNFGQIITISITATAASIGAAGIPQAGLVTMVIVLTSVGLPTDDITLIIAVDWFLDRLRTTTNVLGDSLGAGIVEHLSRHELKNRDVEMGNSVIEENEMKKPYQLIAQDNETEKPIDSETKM

**Q.** For `N[C@@H](CCC(=O)O)C(=O)O` [L-glutamate, L-glutamic acid monosodium salt monohydrate], which EC50 ([1]; +dox, net AUC 0–15 min, read-out: Substrate pEC50 ± SEM (AUC = 0–15 min) (converted)) is on record?
**A.** Its EC50 is over 1000 µM.

**Q.** And the EC50 ([1]; +dox, net AUC 0–120 min, read-out: Substrate pEC50 ± SEM (AUC = 0–120 min) (converted))?
**A.** Its EC50 is 316 µM.

**Q.** What about the EC50 ([1]; Substrate pEC50 ± SEM (AUC = 0–120 min), −dox, net AUC 0–120 min) of the same compound?
**A.** The EC50 was 100 µM.

**Q.** And the EC50 ([2]; JumpIn-EAAT2, +dox)?
**A.** Its EC50 is 251 µM.

**Q.** And the EC50 ([2]; JumpIn-EAAT2, −dox)?
**A.** Its EC50 is 158 µM.

**Q.** What about the “Change in cell morphology after stimulation” value [3] of the same compound?
**A.** Its value is “drastically extend their actin cytoskeleton outward”.
